One test concerns the target CDK2/Cyclin E1 (Homo sapiens (Human), UniProt P24941). The test can be described thus: Caliper LabChip EZ Reader mobility shift assay. It counts as biochemical. To be noted: 2.5 nM CDK2/Cyclin E1 (14-475), 100 μM ATP, 1.5 μM fluorescent peptide; read-out: Caliper Assay (CDK2/CCNE1): IC50. As for the experimental part:
Inhibition of CDK2/Cyclin E1 activity in the presence of compounds of the present disclosure was evaluated using a Caliper LabChip® EZ Reader mobility shift assay. In the assay, activated CDK2/Cyclin E1 catalyzes the phosphorylation of a fluorescently tagged peptide 5-FAM-QSPKKG-CONH2 (PerkinElmer, FL Peptide 18) which induces a difference in capillary electrophoresis mobility. The peptide substrate and product were measured, and the conversion ratio was used to determine the inhibition (as % activity and IC50 values) of CDK2/Cyclin E1. Reactions contained 50 mM HEPES pH 7.5, 10 mM MgCl2, 1 mM EDTA, 2 mM DTT, 0.01% Brij35, 0.5 mg/mL BSA, 0.1% DMSO, 2.5 nM CDK2/Cyclin E1 (14-475), 100 μM ATP, and 1.5 μM fluorescent peptide substrate.
Dose titrations of inhibitors in 100% DMSO were combined with 3.25 nM CDK2/Cyclin E1 (14-475) and 130 μM of ATP in reaction buffer. The mixtures were incubated for 30 minutes before the addition of fluorescent peptide substrate to initiate the kinase reaction. The final conditions were 2.5 nM CDK2/Cyclin E1 (14-475), 100 μM ATP, and 1.5 μM fluorescent peptide. The reactions were stopped after 100 minutes with the addition of EDTA (6 mM final EDTA concentration). The stopped reactions were analyzed on a Caliper LabChip® EZ Reader II. The conversion ratios were normalized to yield % activity, plotted against compound concentration, and fit to a four-parameter equation to determine the IC50 for each compound.

Test [1] deals with Kuramochi cells labeled with mApple-H2B. As to the kind of experiment: IncuCyte cell proliferation assay. It counts as cell-based. To be noted: Kuramochi RB-WT, cell count 0 to 72 hours; method calls it GI50. As for the experimental part: IncuCyte® assay was used to measure the effect of disclosed compounds on cell proliferation. Fluorescent microscopy images of cells were taken immediately after compound treatment and 72 hours later. Image analysis software was used to obtain cell counts as a function of compound concentration. Kuramochi cells labeled with mApple-H2B were seeded on 384-well assay-ready plates. Plates were placed in an IncuCyte® (Sartorius) and scanned at 0 and 72 hours. IncuCyte® software was used to count the number of fluorescent nuclei in each well. The fold change in cell count from 0 to 72 hours in wells treated with increasing compounds concentrations (10 pts, 1/2 log dilution, 20 μM top concentration) was normalized to DMSO control wells. The normalized cell counts were fit with dose response curves and a GI50 was calculated.

`COC[C@H]1CCCN(C(=O)C(NC(=O)[C@@H]2CN(c3nc(C(F)(F)F)cs3)CC23CN(C(=O)[C@H]2CC2(C)C)C3)[C@@H](C)OCC23CCC(CC2)OC3)C1` (stereo in doubt) [Compound I-17, (S)-N-((2S,3R)-3-(2-oxabicyclo[2.2.2]octan-4-ylmethoxy)-1-((S)-3-(methoxymethyl)piperidin-1-yl)-1-oxobutan-2-yl)-2-((S)-2,2-dimethylcyclopropanecarbonyl)-6-(4-(trifluoromethyl)thiazol-2-yl)-2,6-diazaspiro[3.4]octane-8-carboxamide]: the IC50 on CDK2/Cyclin E1 was > 10 µM; in test [1], > 20 µM.
Consider `CC(C)(O)C(NC(=O)[C@@H]1CN(C(=O)c2cncs2)CC12CN(c1ncco1)C2)c1cccc(C2CCOCC2)n1` (stereo partly drawn) [Compound I-5, (8S)—N-(2-hydroxy-2-methyl-1-(6-(tetrahydro-2H-pyran-4-yl) 239yridine-2-yl)propyl)-2-(oxazol-2-yl)-6-(thiazole-5-carbonyl)-2,6-diazaspiro[3.4]octane-8-carboxamide], for which the IC50 at CDK2/Cyclin E1 was > 10 µM; in test [1] it was > 20 µM.
For `C[C@@H](OCC1CCC(F)(F)CC1)[C@H](NC(=O)[C@@H]1CN(C(=O)c2cncs2)CC12CN(c1cc[nH]n1)C2)C(C)(C)O` [Compound I-6, (S)-N-((3S,4R)-4-((4,4-difluorocyclohexyl)methoxy)-2-hydroxy-2-methylpentan-3-yl)-2-(1H-pyrazol-3-yl)-6-(thiazole-5-carbonyl)-2,6-diazaspiro[3.4]octane-8-carboxamide] the same measures were > 10 µM and > 20 µM.
For `C[C@@H](OCC1CCCCC1)[C@H](NC(=O)[C@@H]1CN(c2cccc3[nH]ncc23)CC12CN(C(=O)[C@H]1CC1(C)C)C2)C(=O)N1CCCCC1` [Compound I-13, (S)-N-((2S,3R)-3-(cyclohexylmethoxy)-1-oxo-1-(piperidin-1-yl)butan-2-yl)-2-((S)-2,2-dimethylcyclopropanecarbonyl)-6-(1H-indazol-4-yl)-2,6-diazaspiro[3.4]octane-8-carboxamide] the same measures were 1 to 10 µM and 5 to 20 µM.
On to `C[C@@H](OCC1CCCCC1)[C@H](NC(=O)[C@@H]1CN(c2nccc3ncsc23)CC12CN(C(=O)[C@H]1CC1(C)C)C2)C(=O)N1CCCCC1` [Compound I-15, (S)-N-((2S,3R)-3-(cyclohexylmethoxy)-1-oxo-1-(piperidin-1-yl)butan-2-yl)-2-((S)-2,2-dimethylcyclopropanecarbonyl)-6-(thiazolo[5,4-c]pyridin-4-yl)-2,6-diazaspiro[3.4]octane-8-carboxamide], for which the IC50 at CDK2/Cyclin E1 is 0.1 to 1 µM; in test [1] it was 5 to 20 µM.
On to `C[C@@H](OCC12CCC(CC1)OC2)C(NC(=O)[C@@H]1CN(c2cccc3ncsc23)CC12CN(C(=O)[C@H]1CC1(C)C)C2)C(C)(C)O` (stereo partly drawn) [Compound I-16, (S)-N-((3S,4R)-4-((2-oxabicyclo[2.2.2]octan-4-yl)methoxy)-2-hydroxy-2-methylpentan-3-yl)-6-(benzo[d]thiazol-7-yl)-2-((S)-2,2-dimethylcyclopropane-1-carbonyl)-2,6-diazaspiro[3.4]octane-8-carboxamide], for which, on CDK2/Cyclin E1, the IC50 is > 10 µM.
In the case of `C[C@@H](OCC12CCC(CC1)OC2)[C@H](NC(=O)[C@@H]1CN(c2nccc3ncsc23)CC12CN(C(=O)[C@H]1CC1(C)C)C2)C(=O)N1CCC2(CC1)COC2` [Compound I-19, (S)-N-((2S,3R)-3-(2-oxabicyclo[2.2.2]octan-4-ylmethoxy)-1-oxo-1-(2-oxa-7-azaspiro[3.5]nonan-7-yl)butan-2-yl)-2-((S)-2,2-dimethylcyclopropanecarbonyl)-6-(thiazolo[5,4-c]pyridin-4-yl)-2,6-diazaspiro[3.4]octane-8-carboxamide], the IC50 at CDK2/Cyclin E1 is 1 to 10 µM; in test [1], > 20 µM.
For `COC[C@H]1CCCN(C(=O)[C@@H](NC(=O)[C@@H]2CN(c3cc(O)cc4ncsc34)CC23CN(C(=O)[C@H]2CC2(C)C)C3)[C@@H](C)OCC23CCC(CC2)OC3)C1` [Compound I-20, (S)-N-((2S,3R)-3-(2-oxabicyclo[2.2.2]octan-4-ylmethoxy)-1-((S)-3-(methoxymethyl)piperidin-1-yl)-1-oxobutan-2-yl)-2-((S)-2,2-dimethylcyclopropanecarbonyl)-6-(5-hydroxybenzo[d]thiazol-7-yl)-2,6-diazaspiro[3.4]octane-8-carboxamide] the same measures were 0.1 to 1 µM and 5 to 20 µM.
For `COC[C@H]1CCCN(C(=O)[C@@H](NC(=O)[C@@H]2CN(c3cc(C(F)(F)F)cc4ncsc34)CC23CN(C(=O)[C@H]2CC2(C)C)C3)[C@@H](C)OCC23CCC(CC2)OC3)C1` [Compound I-21, (S)-N-((2S,3R)-3-(2-oxabicyclo[2.2.2]octan-4-ylmethoxy)-1-((S)-3-(methoxymethyl)piperidin-1-yl)-1-oxobutan-2-yl)-2-((S)-2,2-dimethylcyclopropanecarbonyl)-6-(5-(trifluoromethyl)benzo[d]thiazol-7-yl)-2,6-diazaspiro[3.4]octane-8-carboxamide] the same measures were > 10 µM and 5 to 20 µM.
For `C[C@@H](OCC12CCC(CC1)OC2)[C@H](NC(=O)[C@@H]1CN(c2cccc3ncsc23)CC12CN(C(=O)[C@H]1CC1(C)C)C2)C(=O)N(C)C` [Compound I-22, (S)-N-((2S,3R)-3-(2-oxabicyclo[2.2.2]octan-4-ylmethoxy)-1-(dimethylamino)-1-oxobutan-2-yl)-6-(benzo[d]thiazol-7-yl)-2-((S)-2,2-dimethylcyclopropanecarbonyl)-2,6-diazaspiro[3.4]octane-8-carboxamide] the same measures were 1 to 10 µM and > 20 µM.
On to `C[C@@H](OCC12CCC(CC1)OC2)[C@H](NC(=O)[C@@H]1CN(c2nccc3ncsc23)CC12CN(C(=O)[C@H]1CC1(C)C)C2)C(=O)N(C)C` [Compound I-23, (S)-N-((2S,3R)-3-(2-oxabicyclo[2.2.2]octan-4-ylmethoxy)-1-(dimethylamino)-1-oxobutan-2-yl)-2-((S)-2,2-dimethylcyclopropanecarbonyl)-6-(thiazolo[5,4-c]pyridin-4-yl)-2,6-diazaspiro[3.4]octane-8-carboxamide], for which the IC50 on CDK2/Cyclin E1 is 1 to 10 µM; in test [1] it was > 20 µM.
Consider `COC[C@H]1CCCN(C(=O)[C@@H](NC(=O)[C@@H]2CN(c3n[nH]c4ncccc34)CC23CN(C(=O)[C@H]2CC2(C)C)C3)[C@@H](C)OCC23CCC(CC2)OC3)C1` [Compound I-24, (S)-N-((2S,3R)-3-(2-oxabicyclo[2.2.2]octan-4-ylmethoxy)-1-((S)-3-(methoxymethyl)piperidin-1-yl)-1-oxobutan-2-yl)-2-((S)-2,2-dimethylcyclopropanecarbonyl)-6-(1H-pyrazolo[3,4-b]pyridin-3-yl)-2,6-diazaspiro[3.4]octane-8-carboxamide], for which the IC50 at CDK2/Cyclin E1 is > 10 µM.
Regarding `CC(OCC12CCC(CC1)OC2)[C@H](NC(=O)[C@@H]1CN(c2ncnc3ncsc23)CC12CN(C(=O)[C@H]1CC1(C)C)C2)C(=O)N1CC2(CCOCC2)C1` (stereo partly drawn) [Compound I-25, (S)-N-((2S,3R)-3-((2-oxabicyclo[2.2.2]octan-4-yl)methoxy)-1-oxo-1-(7-oxa-2-azaspiro[3.5]nonan-2-yl)butan-2-yl)-2-((S)-2,2-dimethylcyclopropane-1-carbonyl)-6-(thiazolo[4,5-d]pyrimidin-7-yl)-2,6-diazaspiro[3.4]octane-8-carboxamide], the results for the IC50 (on CDK2/Cyclin E1; in test [1]) were 0.1 to 1 µM and > 20 µM, respectively.
Consider `C[C@@H](OCC12CCC(CC1)OC2)[C@H](NC(=O)[C@@H]1CN(c2ncnc3ncsc23)CC12CN(C(=O)[C@H]1CC1(C)C)C2)C(=O)N1CCC(OC(F)(F)F)CC1` [Compound I-29, (S)-N-((2S,3R)-3-((2-oxabicyclo[2.2.2]octan-4-yl)methoxy)-1-oxo-1-(4-(trifluoromethoxy)piperidin-1-yl)butan-2-yl)-2-((S)-2,2-dimethylcyclopropane-1-carbonyl)-6-(thiazolo[4,5-d]pyrimidin-7-yl)-2,6-diazaspiro[3.4]octane-8-carboxamide], for which the IC50 was in the range of 0.01 to 0.1 µM on CDK2/Cyclin E1 and 5 to 20 µM in test [1].
On to `C[C@@H](OCC12CCC(CC1)OC2)[C@H](NC(=O)[C@@H]1CN(C(=O)c2cncs2)CC12CN(c1cc[nH]n1)C2)C(C)(C)O` [Compound I-31, (S)-N-((3S,4R)-4-(2-oxabicyclo[2.2.2]octan-4-ylmethoxy)-2-hydroxy-2-methylpentan-3-yl)-2-(1H-pyrazol-3-yl)-6-(thiazole-5-carbonyl)-2,6-diazaspiro[3.4]octane-8-carboxamide], for which, at CDK2/Cyclin E1, the IC50 is > 10 µM.

The values are drawn from US20260014146A1, “CDK2 INHIBITORS AND METHODS OF USING THE SAME” (Cedilla Therapeutics, Inc., priority 2022, published 2026).
